# Source: US20130004959A1, “SCREENING DEVICE CONTAINING NANOG PROMOTER, SOX2 PROMOTER, LIN 28 PROMOTER, OCT4 PROMOTER AND LUCIFERASE GENE AND SCREENING METHOD THEREOF” (NATIONAL CENTRAL UNIVERSITY, priority 2011, published 2013)
# Tested on: Nanog promoter, Sox2 promoter, Lin28 promoter, Oct4 promoter
# Experiment: Luciferase assay in the screening device (cells stably carrying pStable promoter-Luc reporter plasmids)
# Assay type: cell-based, mouse
# Conditions: 2 mM VPA, reacted with cells for 24 hours, "24 hr cell"; C2C12 / P19 stable clones
# Procedure: The screening is performed after the cells that express various promoters stably being prepared. […] The reporter plasmids whose backbone is constructed by the method mentioned above are transinfected individually into different dishes of host cells. After the reporter plasmids have been introduced into C2C12 or P19 cells, use G418 (Geneticin), a selective antibiotic for Neomycin resistance gene, to screen positive clones because pStable clones carry Neomycin resistance gene. After cell culture, transinfection, stable clone selection, and cells growing as colonies, stable clones in which various different promoters are expressed are obtained. In an embodiment of the present invention, pStable-Nanog-p-Luc plasmid, pStable-Sox2-p-Luc plasmid, pStable-Lin28-p-Luc plasmid and pStable-Oct4-p-Luc plasmid are introduced into both a C2C12 cell line and a P19 cell line. […] The C2C12 cell and P19 cell are cultured in an incubator under normal growth conditions (typically at 37° C., 5% CO2, and saturated humidity). Culture conditions of C2C12 cells and P19 cells are listed in the following list one: After the transfection processes, perform stable clone selection. The transfected cells are cultured in a culture medium containing 800 ug/ml G418. […] In an embodiment of the present invention, harvest cells after cells being reacted with 2 mM VPA for 24 hours and measure luminescence expression of cells. […]
smiles,measurement,value
"CCCC(CCC)C(=O)O [VPA, valporic acid]",level of Luciferase (luminescence expression),higher level of Luciferase
